Measured values as given in ChEMBL document CHEMBL1777781, “Synthesis and antidyslipidemic activity of chalcone fibrates” (2011).

Tests used:
Syrian golden hamster [1] = test: Antidyslipidemic activity against high fructose high fat diet fed syrian golden hamster assessed as reduction in serum cholesterol at 30 mg/kg, po for 7 days relative to untreated control; assay type: functional, Mesocricetus auratus; design: scale not given: the % may be the effect or the level left
Syrian golden hamster [2] = test: Antidyslipidemic activity against high fructose high fat diet fed syrian golden hamster assessed as reduction in serum triglyceride at 30 mg/kg, po for 7 days relative to untreated control; assay type: functional, Mesocricetus auratus; design: scale not given: the % may be the effect or the level left
Syrian golden hamster [3] = test: Antidyslipidemic activity against high fructose high fat diet fed syrian golden hamster assessed as change in serum HDL-cholesterol at 30 mg/kg, po for 7 days relative to untreated control; assay type: functional, Mesocricetus auratus
Syrian golden hamster [4] = test: Antidyslipidemic activity against high fructose high fat diet fed syrian golden hamster assessed as reduction in serum LDL-cholesterol at 30 mg/kg, po for 7 days relative to untreated control; assay type: functional, Mesocricetus auratus; design: scale not given: the % may be the effect or the level left
Syrian golden hamster [5] = test: Antidiabetic activity against high fructose high fat diet fed syrian golden hamster assessed as change in fasting blood glucose level at 30 mg/kg, po for 7 days relative to untreated control; assay type: functional, Mesocricetus auratus
Syrian golden hamster [6] = test: Antidiabetic activity against high fructose high fat diet fed syrian golden hamster assessed as change in serum insulin level at 30 mg/kg, po for 7 days by ELISA relative to untreated control; assay type: functional, Mesocricetus auratus
Syrian golden hamster [7] = test: Antidyslipidemic activity against high fructose high fat diet fed syrian golden hamster assessed as reduction in glycerol level at 30 mg/kg, po for 7 days relative to untreated control; assay type: functional, Mesocricetus auratus; design: scale not given: the % may be the effect or the level left
Syrian golden hamster [8] = test: Antidyslipidemic activity against high fructose high fat diet fed syrian golden hamster assessed as reduction in NEFA level at 30 mg/kg, po for 7 days relative to untreated control; assay type: functional, Mesocricetus auratus; design: scale not given: the % may be the effect or the level left
Syrian golden hamster [9] = test: Antidyslipidemic activity against high fructose high fat diet fed syrian golden hamster assessed as increase in lipoprotein lipase activity at 30 mg/kg, po for 7 days relative to untreated control; assay type: functional, Mesocricetus auratus
Syrian golden hamster [10] = test: Antidyslipidemic activity against high fructose high fat diet fed syrian golden hamster assessed as reduction in serum cholesterol at 10 mg/kg, po for 7 days relative to untreated control; assay type: functional, Mesocricetus auratus; design: scale not given: the % may be the effect or the level left
Syrian golden hamster [11] = test: Antidyslipidemic activity against high fructose high fat diet fed syrian golden hamster assessed as reduction in serum triglyceride at 10 mg/kg, po for 7 days relative to untreated control; assay type: functional, Mesocricetus auratus; design: scale not given: the % may be the effect or the level left
Syrian golden hamster [12] = test: Antidyslipidemic activity against high fructose high fat diet fed syrian golden hamster assessed as change in serum HDL-cholesterol at 10 mg/kg, po for 7 days relative to untreated control; assay type: functional, Mesocricetus auratus
Syrian golden hamster [13] = test: Antidyslipidemic activity against high fructose high fat diet fed syrian golden hamster assessed as reduction in serum LDL-cholesterol at 10 mg/kg, po for 7 days relative to untreated control; assay type: functional, Mesocricetus auratus; design: scale not given: the % may be the effect or the level left
Syrian golden hamster [14] = test: Antidyslipidemic activity against high fructose high fat diet fed syrian golden hamster assessed as reduction in glycerol level at 10 mg/kg, po for 7 days relative to untreated control; assay type: functional, Mesocricetus auratus; design: scale not given: the % may be the effect or the level left
Syrian golden hamster [15] = test: Antidyslipidemic activity against high fructose high fat diet fed syrian golden hamster assessed as reduction in NEFA level at 10 mg/kg, po for 7 days relative to untreated control; assay type: functional, Mesocricetus auratus; design: scale not given: the % may be the effect or the level left
Syrian golden hamster [16] = test: Antidyslipidemic activity against high fructose high fat diet fed syrian golden hamster assessed as increase in lipoprotein lipase activity at 10 mg/kg, po for 7 days relative to untreated control; assay type: functional, Mesocricetus auratus
Syrian golden hamster [17] = test: Antidyslipidemic activity against high fructose high fat diet fed po dosed syrian golden hamster assessed as reduction in serum cholesterol administered for 7 days relative to untreated control; assay type: functional, organism-based; conditions: Mesocricetus auratus
Syrian golden hamster [18] = test: Antidyslipidemic activity against high fructose high fat diet fed po dosed syrian golden hamster assessed as reduction in serum triglyceride administered for 7 days relative to untreated control; assay type: functional, organism-based; conditions: Mesocricetus auratus
Syrian golden hamster [19] = test: Antidyslipidemic activity against high fructose high fat diet fed po dosed syrian golden hamster assessed as increase in serum HDL-cholesterol administered for 7 days relative to untreated control; assay type: functional, organism-based; conditions: Mesocricetus auratus
Syrian golden hamster [20] = test: Antidyslipidemic activity against high fructose high fat diet fed po dosed syrian golden hamster assessed as reduction in serum LDL-cholesterol administered for 7 days relative to untreated control; assay type: functional, organism-based; conditions: Mesocricetus auratus
Syrian golden hamster [21] = test: Antidyslipidemic activity against high fructose high fat diet fed po dosed syrian golden hamster assessed as reduction in glycerol level administered for 7 days relative to untreated control; assay type: functional, organism-based; conditions: Mesocricetus auratus
Syrian golden hamster [22] = test: Antidyslipidemic activity against high fructose high fat diet fed po dosed syrian golden hamster assessed as reduction in NEFA level administered for 7 days relative to untreated control; assay type: functional, organism-based; conditions: Mesocricetus auratus
Syrian golden hamster [23] = test: Antidyslipidemic activity against high fructose high fat diet fed po dosed syrian golden hamster assessed as increase in lipoprotein lipase activity administered for 7 days relative to untreated control; assay type: functional, organism-based; conditions: Mesocricetus auratus
Syrian golden hamster [24] = test: Antidyslipidemic activity against high fructose high fat diet fed syrian golden hamster assessed as reduction in body weight at 30 mg/kg, po for 7 days relative to untreated control; assay type: functional, Mesocricetus auratus; design: scale not given: the % may be the effect or the level left

| Structure (SMILES) | Activity (Syrian golden hamster [1]) [%] | Activity (Syrian golden hamster [2]) [%] | Activity (Syrian golden hamster [3]) [%] | Activity (Syrian golden hamster [4]) [%] | Activity (Syrian golden hamster [5]) [%] | Activity (Syrian golden hamster [6]) [%] | other results |
| --- | --- | --- | --- | --- | --- | --- | --- |
| CCOC(=O)C(C)(C)Oc1ccc(C(=O)/C=C/c2ccc(F)cc2)cc1 | 16.8 | 22.2 | 4.8 | 23.2 | -18.4 | -4.9 |  |
| CCOC(=O)C(C)(C)Oc1ccc(C(=O)/C=C/c2ccc(OC)cc2)cc1 | 9.3 | 31.2 | -9.9 | 27.4 | -16.9 | -5.87 |  |
| CCOC(=O)C(C)(C)Oc1ccc(C(=O)/C=C/c2cc(Cl)cc(Cl)c2)cc1 | 16.9 | 17.4 | 10.1 | 16.8 | -8.4 | -12.1 |  |
| CCOC(=O)C(C)(C)Oc1ccc(C(=O)/C=C/c2ccc(C)cc2)cc1 | 23.4 | 22.7 | 2.52 | 19.8 | -12.9 | -10.8 |  |
| CCOC(=O)C(C)(C)Oc1cccc(/C=C/C(=O)c2ccccc2)c1 | 11.5 | 18.5 | 2.1 | 15.3 | -10.5 | -5.89 |  |
| CCOC(=O)C(C)(C)Oc1ccc(C(=O)/C=C/c2ccc([N+](=O)[O-])cc2)cc1 | 25 | 30.4 | 5.88 | 28.5 | -7.49 | -24.3 | Activity (Syrian golden hamster [7]): 17.2%; Activity (Syrian golden hamster [8]): 15.9%; Activity (Syrian golden hamster [9]): 21.7%; Activity (Syrian golden hamster [10]): 15.6%; Activity (Syrian golden hamster [11]): 20%; Activity (Syrian golden hamster [12]): -3.36%; Activity (Syrian golden hamster [13]): 16.9%; Activity (Syrian golden hamster [14]): 7.93%; Activity (Syrian golden hamster [15]): 2.45%; Activity (Syrian golden hamster [16]): 10.8%; Activity (Syrian golden hamster [17]): Dose-dependent effect; Activity (Syrian golden hamster [18]): Dose-dependent effect; Activity (Syrian golden hamster [19]): Dose-dependent effect; Activity (Syrian golden hamster [20]): Dose-dependent effect; Activity (Syrian golden hamster [21]): Dose-dependent effect; Activity (Syrian golden hamster [22]): Dose-dependent effect; Activity (Syrian golden hamster [23]): Dose-dependent effect; Activity (Syrian golden hamster [24]): 6.85% |
| CCOC(=O)C(C)(C)Oc1ccc(/C=C/C(=O)c2ccccc2)cc1 | 17.8 | 25.1 | 10.8 | 16.8 | 8.8 | 6.78 |  |
| CC(C)OC(=O)C(C)(C)Oc1ccc(C(=O)c2ccc(Cl)cc2)cc1 [FENOFIBRATE] |  | 28.9 | 9.8 | 30.1 | -5.4 | -11.5 | Activity (Syrian golden hamster [7]): 22.4%; Activity (Syrian golden hamster [9]): 21.1% |
| CCOC(=O)C(C)(C)Oc1ccc(C(=O)/C=C/c2ccc(Cl)cc2)cc1 | 23.7 | 22.7 | -2.52 | 20.5 | 5.4 | -22.2 |  |
| CCOC(=O)C(C)(C)Oc1ccc(C(=O)/C=C/c2ccccc2Cl)cc1 | 0.48 | 21.3 | 15.6 | 16.4 | 4.65 | 2.39 |  |
| CCOC(=O)C(C)(C)Oc1ccc(C(=O)/C=C/c2ccc3c(c2)OCO3)cc1 | 26.8 | 41.6 | 9.8 | 41.7 | -14.8 | -22.2 | Activity (Syrian golden hamster [7]): 24.9%; Activity (Syrian golden hamster [8]): 20.5%; Activity (Syrian golden hamster [9]): 30.2%; Activity (Syrian golden hamster [10]): 18.6%; Activity (Syrian golden hamster [11]): 20%; Activity (Syrian golden hamster [12]): 3.78%; Activity (Syrian golden hamster [13]): 25.2%; Activity (Syrian golden hamster [14]): 14.9%; Activity (Syrian golden hamster [15]): 6.73%; Activity (Syrian golden hamster [16]): 14.5%; Activity (Syrian golden hamster [17]): Dose-dependent effect; Activity (Syrian golden hamster [18]): Dose-dependent effect; Activity (Syrian golden hamster [19]): Dose-dependent effect; Activity (Syrian golden hamster [20]): Dose-dependent effect; Activity (Syrian golden hamster [21]): Dose-dependent effect; Activity (Syrian golden hamster [22]): Dose-dependent effect; Activity (Syrian golden hamster [23]): Dose-dependent effect; Activity (Syrian golden hamster [24]): 6.25% |
